Results published in ChEMBL document CHEMBL4330132, “5-Keto-3-cyano-2,4-diaminothiophenes as selective maternal embryonic leucine zipper kinase inhibitors” (Bioorg Med Chem Lett, 2019).

Tests used:
[1] = tested on: Tyrosine-protein kinase ABL1 (Homo sapiens), P00519 [H396P]; assay: Binding affinity to human phosphorylated ABL1 H396P mutant (S229 to K512 residues) expressed in mammalian expression system assessed as residual binding level at 1 uM by Kinomescan method relative to control
[2] = target: Aurora kinase B (Homo sapiens) (UniProt Q96GD4); assay: Binding affinity to wild-type human partial length AURKB (D25 to A303 residues) expressed in mammalian expression system assessed as residual binding level at 1 uM by Kinomescan method relative to control
[3] = target: Serine/threonine-protein kinase B-raf (Homo sapiens) (UniProt P15056); assay: Binding affinity to wild-type human partial length BRAF (S429 to E741 residues) expressed in mammalian expression system assessed as residual binding level at 1 uM by Kinomescan method relative to control
Sequence of Serine/threonine-protein kinase B-raf (Homo sapiens) (P15056 whole entry, the tested form may be a part): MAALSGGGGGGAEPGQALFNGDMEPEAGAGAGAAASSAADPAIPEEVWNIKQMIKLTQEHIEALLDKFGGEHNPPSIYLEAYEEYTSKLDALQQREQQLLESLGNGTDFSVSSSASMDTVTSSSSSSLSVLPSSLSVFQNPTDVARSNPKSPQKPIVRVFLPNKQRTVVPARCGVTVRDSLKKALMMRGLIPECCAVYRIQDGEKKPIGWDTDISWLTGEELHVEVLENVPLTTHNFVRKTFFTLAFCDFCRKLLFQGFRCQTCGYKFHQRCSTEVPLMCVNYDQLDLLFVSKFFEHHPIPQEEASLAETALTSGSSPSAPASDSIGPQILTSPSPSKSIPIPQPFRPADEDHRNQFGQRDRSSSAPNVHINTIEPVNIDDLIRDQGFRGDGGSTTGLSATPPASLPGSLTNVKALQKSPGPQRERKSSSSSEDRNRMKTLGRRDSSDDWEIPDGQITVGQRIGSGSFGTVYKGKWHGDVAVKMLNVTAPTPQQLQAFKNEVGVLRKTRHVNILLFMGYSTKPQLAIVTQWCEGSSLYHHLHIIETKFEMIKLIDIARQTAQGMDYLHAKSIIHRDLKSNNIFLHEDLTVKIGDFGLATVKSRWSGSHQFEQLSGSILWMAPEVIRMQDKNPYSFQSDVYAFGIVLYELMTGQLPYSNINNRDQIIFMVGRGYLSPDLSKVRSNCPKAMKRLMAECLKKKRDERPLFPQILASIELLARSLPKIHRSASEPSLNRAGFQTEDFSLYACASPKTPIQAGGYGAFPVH

[4] = target: Calcium/calmodulin-dependent protein kinase type IV (Homo sapiens) (UniProt Q16566); assay: Binding affinity to wild-type human partial length CAMK4 (A22 to A322 residues) expressed in bacterial expression system assessed as residual binding level at 1 uM by Kinomescan method relative to control
[5] = target: Cyclin-dependent kinase 19 (Homo sapiens) (UniProt Q9BWU1); assay: Binding affinity to wild-type human partial length CDK11 (M1 to N360 residues) expressed in bacterial expression system assessed as residual binding level at 1 uM by Kinomescan method relative to control
[6] = target: Casein kinase I isoform epsilon (Homo sapiens) (UniProt P49674); assay: Binding affinity to wild-type human full length CSNK1E (M1 to K416 residues) expressed in bacterial expression system assessed as residual binding level at 1 uM by Kinomescan method relative to control
[7] = target: Serine/threonine-protein kinase DCLK3 (Homo sapiens) (UniProt Q9C098); assay: Binding affinity to wild-type human partial length DCAMKL3 (E140 to V628 residues) expressed in bacterial expression system assessed as residual binding level at 1 uM by Kinomescan method relative to control
[8] = target: Myotonin-protein kinase (Homo sapiens) (UniProt Q09013); assay: Binding affinity to wild-type human partial length DMPK (V47 to V415 residues) expressed in bacterial expression system assessed as residual binding level at 1 uM by Kinomescan method relative to control
[9] = target: Serine/threonine-protein kinase 17B (Homo sapiens) (UniProt O94768); assay: Binding affinity to wild-type human full length DRAK2 (M1 to C372 residues) expressed in bacterial expression system assessed as residual binding level at 1 uM by Kinomescan method relative to control
[10] = target: Ephrin type-A receptor 5 (Homo sapiens) (UniProt P54756); assay: Binding affinity to wild-type human partial length EPHA5 (T627 to V930 residues) expressed in bacterial expression system assessed as residual binding level at 1 uM by Kinomescan method relative to control
[11] = target: Ephrin type-B receptor 6 (Homo sapiens) (UniProt O15197); assay: Binding affinity to wild-type human partial length EPHB6 (Q634 to P948 residues) expressed in mammalian expression system assessed as residual binding level at 1 uM by Kinomescan method relative to control
Sequence of Ephrin type-B receptor 6 (Homo sapiens) (O15197 whole entry, the tested form may be a part): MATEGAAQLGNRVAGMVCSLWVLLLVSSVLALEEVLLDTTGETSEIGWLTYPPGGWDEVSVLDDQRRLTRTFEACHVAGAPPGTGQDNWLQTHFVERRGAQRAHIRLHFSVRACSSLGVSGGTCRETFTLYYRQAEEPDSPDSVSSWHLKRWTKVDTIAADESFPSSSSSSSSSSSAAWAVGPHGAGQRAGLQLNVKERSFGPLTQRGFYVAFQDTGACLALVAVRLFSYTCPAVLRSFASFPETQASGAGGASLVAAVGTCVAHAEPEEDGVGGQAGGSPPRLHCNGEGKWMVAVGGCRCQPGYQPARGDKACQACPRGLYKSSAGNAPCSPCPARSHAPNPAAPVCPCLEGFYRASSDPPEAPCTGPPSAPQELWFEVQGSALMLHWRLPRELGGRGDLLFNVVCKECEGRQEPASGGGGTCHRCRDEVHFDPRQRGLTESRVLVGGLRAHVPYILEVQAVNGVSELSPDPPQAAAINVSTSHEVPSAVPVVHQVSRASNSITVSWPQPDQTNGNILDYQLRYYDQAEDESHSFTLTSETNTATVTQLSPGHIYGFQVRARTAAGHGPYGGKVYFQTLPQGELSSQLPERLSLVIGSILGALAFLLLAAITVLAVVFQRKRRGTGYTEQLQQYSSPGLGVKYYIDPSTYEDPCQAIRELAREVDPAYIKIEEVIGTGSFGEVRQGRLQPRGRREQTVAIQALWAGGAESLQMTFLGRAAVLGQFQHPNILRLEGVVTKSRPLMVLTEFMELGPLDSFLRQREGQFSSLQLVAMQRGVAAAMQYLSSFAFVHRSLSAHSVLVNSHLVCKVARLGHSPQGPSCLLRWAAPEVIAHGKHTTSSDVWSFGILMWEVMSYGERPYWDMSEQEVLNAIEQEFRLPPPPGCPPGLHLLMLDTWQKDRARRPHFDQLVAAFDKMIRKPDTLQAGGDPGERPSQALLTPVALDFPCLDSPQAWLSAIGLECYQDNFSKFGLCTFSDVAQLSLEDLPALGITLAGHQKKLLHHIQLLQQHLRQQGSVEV

[12] = target: Mitogen-activated protein kinase 3 (Homo sapiens) (UniProt P27361); assay: Binding affinity to wild-type human full length ERK1 (M1 to P379 residues) expressed in bacterial expression system assessed as residual binding level at 1 uM by Kinomescan method relative to control
Sequence of Mitogen-activated protein kinase 3 (Homo sapiens) (P27361 whole entry, the tested form may be a part): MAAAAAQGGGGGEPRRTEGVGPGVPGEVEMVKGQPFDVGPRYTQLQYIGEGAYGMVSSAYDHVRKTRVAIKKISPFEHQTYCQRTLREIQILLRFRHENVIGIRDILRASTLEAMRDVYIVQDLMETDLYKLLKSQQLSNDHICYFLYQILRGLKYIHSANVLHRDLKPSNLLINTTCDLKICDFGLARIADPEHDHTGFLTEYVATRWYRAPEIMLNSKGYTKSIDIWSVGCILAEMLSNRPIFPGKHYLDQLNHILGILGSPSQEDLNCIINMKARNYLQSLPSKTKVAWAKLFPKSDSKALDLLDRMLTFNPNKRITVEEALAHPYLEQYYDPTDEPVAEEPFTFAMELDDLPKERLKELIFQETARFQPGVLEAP

[13] = target: Serine/threonine-protein kinase/endoribonuclease IRE1 (Homo sapiens) (UniProt O75460); assay: Binding affinity to wild-type human partial length ERN1 (S551 to E852 residues) expressed in mammalian expression system assessed as residual binding level at 1 uM by Kinomescan method relative to control
[14] = tested on: Receptor-type tyrosine-protein kinase FLT3 (Homo sapiens), P36888 [R834Q]; assay: Binding affinity to human partial length FLT3 R834Q mutant (V592 to Y969 residues) expressed in mammalian expression system assessed as residual binding level at 1 uM by Kinomescan method relative to control
[15] = target: Misshapen-like kinase 1 (Homo sapiens) (UniProt Q8N4C8); assay: Binding affinity to wild-type human partial length MINK (M1 to K312 residues) expressed in mammalian expression system assessed as residual binding level at 1 uM by Kinomescan method relative to control
[16] = target: Serine/threonine-protein kinase Nek2 (Homo sapiens) (UniProt P51955); assay: Binding affinity to wild-type human partial length NEK2 (M1 to K309 residues) expressed in bacterial expression system assessed as residual binding level at 1 uM by Kinomescan method relative to control
Sequence of Serine/threonine-protein kinase Nek2 (Homo sapiens) (P51955 whole entry, the tested form may be a part): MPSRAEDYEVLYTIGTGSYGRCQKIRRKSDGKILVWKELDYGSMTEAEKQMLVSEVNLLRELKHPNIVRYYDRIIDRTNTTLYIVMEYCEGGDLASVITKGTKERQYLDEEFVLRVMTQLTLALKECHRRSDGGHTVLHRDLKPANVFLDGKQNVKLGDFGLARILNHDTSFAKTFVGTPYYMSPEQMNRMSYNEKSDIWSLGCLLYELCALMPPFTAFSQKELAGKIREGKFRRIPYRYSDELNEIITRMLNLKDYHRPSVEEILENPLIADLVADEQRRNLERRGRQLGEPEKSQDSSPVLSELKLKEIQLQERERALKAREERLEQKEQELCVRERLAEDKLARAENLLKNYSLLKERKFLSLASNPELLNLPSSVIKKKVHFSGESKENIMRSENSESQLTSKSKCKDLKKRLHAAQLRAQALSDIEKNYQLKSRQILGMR

[17] = target: Serine/threonine-protein kinase PLK2 (Homo sapiens) (UniProt Q9NYY3); assay: Binding affinity to wild-type human partial length PLK2 (H58 to F354 residues) expressed in mammalian expression system assessed as residual binding level at 1 uM by Kinomescan method relative to control
Sequence of Serine/threonine-protein kinase PLK2 (Homo sapiens) (Q9NYY3 whole entry, looked up, the tested form may be a part): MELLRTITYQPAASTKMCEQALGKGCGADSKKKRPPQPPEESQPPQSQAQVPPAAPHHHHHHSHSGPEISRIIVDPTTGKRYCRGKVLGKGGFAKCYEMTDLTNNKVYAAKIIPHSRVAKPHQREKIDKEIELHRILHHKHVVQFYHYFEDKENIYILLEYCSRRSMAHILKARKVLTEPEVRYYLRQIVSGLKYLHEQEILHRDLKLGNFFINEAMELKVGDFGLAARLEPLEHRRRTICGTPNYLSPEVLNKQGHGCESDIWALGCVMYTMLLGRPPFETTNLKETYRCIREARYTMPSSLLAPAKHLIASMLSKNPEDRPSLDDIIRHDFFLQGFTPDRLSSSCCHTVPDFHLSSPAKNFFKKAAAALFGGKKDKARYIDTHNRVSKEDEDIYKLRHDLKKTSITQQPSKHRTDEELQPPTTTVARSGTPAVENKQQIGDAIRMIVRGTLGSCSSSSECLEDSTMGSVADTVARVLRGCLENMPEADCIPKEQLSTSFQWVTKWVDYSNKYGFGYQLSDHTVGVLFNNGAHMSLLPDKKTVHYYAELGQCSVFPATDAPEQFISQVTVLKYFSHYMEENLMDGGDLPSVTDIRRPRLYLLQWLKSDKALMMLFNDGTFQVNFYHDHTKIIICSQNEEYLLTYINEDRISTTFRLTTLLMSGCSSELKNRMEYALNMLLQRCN

[18] = target: cGMP-dependent protein kinase 2 (Homo sapiens) (UniProt Q13237); assay: Binding affinity to wild-type human partial length PRKG2 (S422 to F762 residues) expressed in mammalian expression system assessed as residual binding level at 1 uM by Kinomescan method relative to control
[19] = target: Ribosomal protein S6 kinase alpha-5 (Homo sapiens) (UniProt O75582); assay: Binding affinity to wild-type human partial length N-terminal RPS6KA5 kinase domain 1 expressed in bacterial expression system assessed as residual binding level at 1 uM by Kinomescan method relative to control
Sequence of Ribosomal protein S6 kinase alpha-5 (Homo sapiens) (O75582 whole entry, looked up, the tested form may be a part): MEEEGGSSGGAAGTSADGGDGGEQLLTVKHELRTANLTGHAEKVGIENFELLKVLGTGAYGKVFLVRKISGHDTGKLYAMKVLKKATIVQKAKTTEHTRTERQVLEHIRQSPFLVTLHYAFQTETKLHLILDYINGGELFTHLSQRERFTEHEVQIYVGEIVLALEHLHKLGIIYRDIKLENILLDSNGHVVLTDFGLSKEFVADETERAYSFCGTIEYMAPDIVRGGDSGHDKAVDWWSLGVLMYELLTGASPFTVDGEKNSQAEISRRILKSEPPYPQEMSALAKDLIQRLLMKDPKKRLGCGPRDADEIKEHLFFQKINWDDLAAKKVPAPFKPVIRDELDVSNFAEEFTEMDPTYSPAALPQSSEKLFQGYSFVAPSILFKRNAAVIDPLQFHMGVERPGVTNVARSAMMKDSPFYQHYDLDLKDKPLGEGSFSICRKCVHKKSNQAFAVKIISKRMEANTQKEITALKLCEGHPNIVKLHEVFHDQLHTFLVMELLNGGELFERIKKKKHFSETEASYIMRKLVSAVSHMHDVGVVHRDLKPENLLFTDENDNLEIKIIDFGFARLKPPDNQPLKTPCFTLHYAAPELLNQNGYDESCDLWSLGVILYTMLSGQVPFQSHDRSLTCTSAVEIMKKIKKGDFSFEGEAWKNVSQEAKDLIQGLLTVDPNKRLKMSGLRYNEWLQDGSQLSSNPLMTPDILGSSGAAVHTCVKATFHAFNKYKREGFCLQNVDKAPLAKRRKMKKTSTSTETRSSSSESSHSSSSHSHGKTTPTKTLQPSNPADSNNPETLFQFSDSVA

[20] = target: SRSF protein kinase 2 (Homo sapiens) (UniProt P78362); assay: Binding affinity to wild-type human full length SRPK2 (M1 to S686 residues) expressed in bacterial expression system assessed as residual binding level at 1 uM by Kinomescan method relative to control
[21] = target: Serine/threonine-protein kinase 36 (Homo sapiens) (UniProt Q9NRP7); assay: Binding affinity to wild-type human partial length STK36 (M1 to T271 residues) expressed in bacterial expression system assessed as residual binding level at 1 uM by Kinomescan method relative to control
[22] = target: Angiopoietin-1 receptor (Homo sapiens) (UniProt Q02763); assay: Binding affinity to wild-type human partial length TIE2 (N804 to T1112 residues) expressed in bacterial expression system assessed as residual binding level at 1 uM by Kinomescan method relative to control
[23] = target: Serine/threonine-protein kinase TNNI3K (Homo sapiens) (UniProt Q59H18); assay: Binding affinity to wild-type human full length TNNI3K (M1 to S835 residues) expressed in bacterial expression system assessed as residual binding level at 1 uM by Kinomescan method relative to control
[24] = target: High affinity nerve growth factor receptor (Homo sapiens) (UniProt P04629); assay: Binding affinity to wild-type human partial length TRKA (G475 to G790 residues) expressed in mammalian expression system assessed as residual binding level at 1 uM by Kinomescan method relative to control
Sequence of High affinity nerve growth factor receptor (Homo sapiens) (P04629 33-796 limits assumed): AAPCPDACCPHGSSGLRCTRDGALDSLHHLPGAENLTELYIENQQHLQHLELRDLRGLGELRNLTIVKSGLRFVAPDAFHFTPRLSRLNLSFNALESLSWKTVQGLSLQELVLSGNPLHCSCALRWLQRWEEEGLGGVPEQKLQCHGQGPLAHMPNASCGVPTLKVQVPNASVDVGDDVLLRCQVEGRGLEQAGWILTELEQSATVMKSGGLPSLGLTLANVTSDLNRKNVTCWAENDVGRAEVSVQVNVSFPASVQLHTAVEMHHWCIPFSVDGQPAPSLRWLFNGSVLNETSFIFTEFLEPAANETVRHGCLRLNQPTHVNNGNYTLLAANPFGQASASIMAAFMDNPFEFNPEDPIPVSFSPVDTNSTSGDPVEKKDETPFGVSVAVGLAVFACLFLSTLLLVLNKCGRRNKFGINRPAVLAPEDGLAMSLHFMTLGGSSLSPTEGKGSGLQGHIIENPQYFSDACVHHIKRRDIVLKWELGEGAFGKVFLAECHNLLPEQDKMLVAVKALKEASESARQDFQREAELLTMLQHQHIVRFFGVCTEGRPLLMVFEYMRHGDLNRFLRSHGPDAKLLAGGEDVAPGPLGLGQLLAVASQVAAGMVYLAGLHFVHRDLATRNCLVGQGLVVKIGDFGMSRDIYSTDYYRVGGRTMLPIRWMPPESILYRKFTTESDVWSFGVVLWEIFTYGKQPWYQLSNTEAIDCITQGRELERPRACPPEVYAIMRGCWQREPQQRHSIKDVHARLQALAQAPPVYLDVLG

[25] = target: Wee1-like protein kinase (Homo sapiens) (UniProt P30291); assay: Binding affinity to wild-type human partial length WEE1 (M291 to K575 residues) expressed in bacterial expression system assessed as residual binding level at 1 uM by Kinomescan method relative to control

SMILES: CC(C)Nc1sc(C(=O)c2ccc(Cl)s2)c(N)c1C#N
- Activity [1]: 100%
- Activity [2]: 100%
- Activity [3]: 89%
- Activity [4]: 100%
- Activity [5]: 83%
- Activity [6]: 61%
- Activity [7]: 100%
- Activity [8]: 100%
- Activity [9]: 37%
- Activity [10]: 100%
- Activity [11]: 100%
- Activity [12]: 95%
- Activity [13]: 100%
- Activity [14]: 99%
- Activity [15]: 55%
- Activity [16]: 85%
- Activity [17]: 67%
- Activity [18]: 100%
- Activity [19]: 92%
- Activity [20]: 93%
- Activity [21]: 88%
- Activity [22]: 96%
- Activity [23]: 75%
- Activity [24]: 92%
- Activity [25]: 94%
